Key:
Colo 829 = test: Inhibition of cell growth, sulphorhodamine B staining; type: cell-based, human; conditions: Colo 829 melanoma cells (BRAF V599E)
Description: (§1) Colo 829 cells are a melanoma cell line that harbours a V599E mutation in the BRAF gene and BE cells are a colorectal line that harbour a G463 mutation in the BRAF gene (Davies et al., 2002). As we have shown, both of these mutations are activating (Davies et al., 2002). Finally, we tested the effects of these inhibitors on DNA synthesis.
(§2) Cell lines were incubated in the presence of increasing levels of BAY 43-9006 and the levels of cell growth were determined by sulphorhodamine B staining. The IC50 values were determined by non-linear regression analysis and are indicated.

BE = test: as above; type: cell-based, human; conditions: BE colorectal cells (BRAF G463 mutation)
Description: as §1, §2

WM266.4 = test: as above; type: cell-based, human; conditions: WM266.4 melanoma cells (BRAF V599D)
[1] = system: ERK activity in WM266.4 cells; test: Active ERK levels by Western blot with ppERK antibody; type: cell-based, human; conditions: 10 μM compound
Description: WM266.4 or A375P cells were treated with 10 μM U0126, 10 μM BAY 43-9006 or DMSO as a control. Equivalent amounts of cellular proteins were resolved on SDS-gels and the levels of active ERK were determined using the ppERK antibody.
FIG. 6. Ablation of BRAF, but not CRAF blocks ERK activity in melanoma cells. WM-266.4 or Colo 829 cells were treated with a BRAF specific siRNA probe (BRAF), or the scrambled control (sBRAF), or a CRAF specific probe (CRAF), or its scrambled control (sCRAF), or oligofectamine (oligo) or left untreated (control) as indicated. The cells were incubated for the times indicated, and the Colo 829 cells were treated for 24hours. The levels of ERK activity in equivalent amounts of cell extract was determined by Western blotting with the ppERK antibody.
In order to validate BRAF as a target in cancer, it is first tested whether the growth of cells that express activated, mutant forms of BRAF required the RAF-MEK-ERK signaling pathway for growth. To this end, melanoma and colorectal cell lines that harbour mutations in the BRAF gene are treated with pharmacological agents that block signaling through this pathway. Two compounds are tested. One is the compound U0126, which is a MEK inhibitor and which therefore uncouples RAF-ERK signaling in cells (Sebolt-Leopold et al., 1999). BAY 43-9006 os also tested. This is an inhibitor of RAF proteins (Lyons et al., 2001). […]

WM-266.4 cells [2] = test: DNA synthesis, [3H]-thymidine incorporation; type: cell-based, human; conditions: 10 μM, 48 hours
Description: FIG. 4. Inhibition of cell growth by pharmacological agents. WM-266.4 cells were incubated in the presence of U0126 (10 μM) or BAY 43-9006 (10 μM) or the vehicle control (DMSO). After 48 hours, DNA synthesis was determined by incubating the cells with [^3H]-thymidine and the levels of thymidine incorporated into the cellular DNA was determined.
as §1

ERK (NCI-H2087 cells) = conditions: NCI-H2087, NSCLC cell line pair; Ras onc; B-Raf L596V
ERK (Mawi cells) = conditions: colorectal, Ras wt, B-Raf V599E
[3] = system: ERK (WM-266-4/WM-115 cells); conditions: WM-266-4/WM-115, melanoma; Ras b; B-Raf V599D
ERK (CHL cells) = conditions: melanoma, B-Raf wt
WM-266-4/WM-115 = conditions: WM-266-4/WM-115, melanoma; Ras b; B-Raf V599D
Excerpt: (§3) The second approach is to examine the effects of the compound U0126, an inhibitor of MEK1/2, the only known substrates for B-Raf.

SK-MEL-28 = conditions: SK-MEL-28, melanoma; Ras b; B-Raf V599E
Excerpt: as §3

SW620 = conditions: SW620, colorectal; Ras onc; B-Raf wt
Excerpt: as §3

A2058 = conditions: A2058, melanoma; B-Raf V599E
Excerpt: as §3

Mawi = conditions: colorectal, Ras wt, B-Raf V599E
Excerpt: as §3

CHL = conditions: melanoma, B-Raf wt
Excerpt: as §3

NCI-H2087 = conditions: NCI-H2087, NSCLC cell line pair; Ras onc; B-Raf L596V
Excerpt: as §3

colo741 = conditions: colo741, colorectal; B-Raf V599E
Excerpt: as §3

ERK (A2058 cells) = conditions: A2058, melanoma; B-Raf V599E
WM-266.4 cells [4] = test: Cell cycle analysis by FACS (propridium iodide); type: cell-based, human; conditions: 96 hours
Description: FIG. 7. Ablation of BRAF, but not CRAF induces apoptosis in melanoma cells. WM-266.4 cells were treated with a BRAF specific siRNA probe (BRAF), or the scrambled control (sBRAF), or a CRAF specific siRNA probe (CRAF), or U0126, or […] (oligo) or left untreated (control) as indicated. The cells were incubated for 96 hours and the cell cycle profile was analysed by FACS, or PARP expression was examined by Western blotting.
Finally, we examined how BRAF ablation affected cell growth, examining the effects on apoptosis in WM-266.4 cells. For these studies, the cells were fixed in 70% ethanol, stained with propridium iodide and their cell cycle profiles were examined by fluorescent activated cell sorting (FACS). Using this analysis, the apoptotic cells appear in the sub-G1 peak. In these cells, spontaneous apoptosis is very low, with less than 1% of the cell appearing in the sub-G1 peak (FIG. 7, table 5). […] We also examined PARP cleavage, a marker of the induction of apoptosis.
WM-266.4 cells were treated with U0126, DMSO, siRNA to BRAF, siRNA to CRAF or the scrambled siRNA control. The cells were incubated for 96 hours and the cells were fixed and stained with propridium iodide for cell cycle analysis by FACS. The proportion of cells in each phase of the cell cycle is shown.

ERK (colo741 cells) = conditions: colo741, colorectal; B-Raf V599E
ERK (SK-MEL-28 cells) = conditions: SK-MEL-28, melanoma; Ras b; B-Raf V599E
cellular Ras = test: cell-based or functional assay

CNC(=O)c1cc(Oc2ccc(NC(=O)Nc3ccc(Cl)c(C(F)(F)F)c3)cc2)ccn1 [BAY 43-9006]
IC50 (Colo 829): 5.1 µM | IC50, inhibition of cell growth (Colo 829): low micro-molar range | IC50 (BE): 5.4 µM | IC50, inhibition of cell growth (BE): low micro-molar range | IC50 (WM266.4): 6.1 µM | IC50 (WM266.4; listed as BAY 43-9002): ~6.1 µM | ERK activity (ppERK Western blot) [1]: strongly suppressed | DNA synthesis ([3H]-thymidine incorporation) (WM-266.4 cells [2]): strongly suppressed

N#CC(=C(/N)Sc1ccccc1N)/C(C#N)=C(\N)Sc1ccccc1N [U0126]
UO/ERK-inhib (ERK (NCI-H2087 cells)): >90% | UO/ERK-inhib (ERK (Mawi cells)): >90% | UO/ERK-inhib [3]: >90% | UO/ERK-inhib (ERK (CHL cells)): >90% | U0 inhibit S (WM-266-4/WM-115): >99% | U0 inhibit S (SK-MEL-28): 98% | U0 inhibit S (SW620): 92% | U0 inhibit S (A2058): 68% | U0 inhibit S (Mawi): 80% | U0 inhibit S (CHL): 51% | U0 inhibit S (NCI-H2087): 56% | U0 inhibit S (colo741): 76% | UO/ERK-inhib (ERK (A2058 cells)): 80% | Proportion of events, G1 (WM-266.4 cells [4]): 87.5% | Proportion of events, G2/M (WM-266.4 cells [4]): 7.8% | Proportion of events, S (WM-266.4 cells [4]): 1.3% | Proportion of events, Sub-G1 (WM-266.4 cells [4]; sub-G1 = apoptotic cells): ~3.5% | UO/ERK-inhib (ERK (colo741 cells)): 90% | UO/ERK-inhib (ERK (SK-MEL-28 cells)): >90% | ERK activity (ppERK Western blot) [1]: strongly suppressed | DNA synthesis ([3H]-thymidine incorporation) (WM-266.4 cells [2]): strongly suppressed

monoclonal antibody Y13-259
inhibition of growth (percentage of cells that do not incorporate BrdU) after micro-injection of Y13-259; A2058, melanoma, Ras not given, B-Raf V599E (cellular Ras): 0% | inhibition of growth (percentage of cells that do not incorporate BrdU) after micro-injection of Y13-259; CaCO2, colorectal, Ras wt, B-Raf wt (cellular Ras): 60% | inhibition of growth (percentage of cells that do not incorporate BrdU) after micro-injection of Y13-259; DLD1, colorectal, Ras K13Asp/wt, B-Raf wt (cellular Ras): 40% | inhibition of growth (percentage of cells that do not incorporate BrdU) after micro-injection of Y13-259; HCT-116, colorectal, Ras K13 Asp, B-Raf wt (cellular Ras): 95% | inhibition of growth (percentage of cells that do not incorporate BrdU) after micro-injection of Y13-259; HMV11-Riken, melanoma, Ras not given, B-Raf wt (cellular Ras): 100% | inhibition of growth (percentage of cells that do not incorporate BrdU) after micro-injection of Y13-259; HT29, colorectal, Ras wt, B-Raf V599E (cellular Ras): 15% | inhibition of growth (percentage of cells that do not incorporate BrdU) after micro-injection of Y13-259; JW2, colorectal, Ras K12, B-Raf wt (cellular Ras): 79% | inhibition of growth (percentage of cells that do not incorporate BrdU) after micro-injection of Y13-259; LS174T, colorectal, Ras K12Asp/wt, B-Raf wt (cellular Ras): 84% | inhibition of growth (percentage of cells that do not incorporate BrdU) after micro-injection of Y13-259; LS411N, colorectal, Ras not given, B-Raf V599E (first value) (cellular Ras): 0% | inhibition of growth (percentage of cells that do not incorporate BrdU) after micro-injection of Y13-259; LS411N, colorectal, Ras not given, B-Raf V599E (second value) (cellular Ras): 0% | inhibition of growth (percentage of cells that do not incorporate BrdU) after micro-injection of Y13-259; Malme, melanoma, Ras not given, B-Raf V599E (cellular Ras): 0% | inhibition of growth (percentage of cells that do not incorporate BrdU) after micro-injection of Y13-259; Mawi, colorectal, Ras wt, B-Raf V599E (cellular Ras): 5% | inhibition of growth (percentage of cells that do not incorporate BrdU) after micro-injection of Y13-259; NCI-H2087, NSCLC cell line pair, Ras onc, B-Raf L596V (cellular Ras): 77% | inhibition of growth (percentage of cells that do not incorporate BrdU) after micro-injection of Y13-259; SK-MEL-28, melanoma, Ras 'b', B-Raf V599E (cellular Ras): 4% | inhibition of growth (percentage of cells that do not incorporate BrdU) after micro-injection of Y13-259; SK-Mel2, melanoma, Ras not given, B-Raf wt (cellular Ras): 70% | inhibition of growth (percentage of cells that do not incorporate BrdU) after micro-injection of Y13-259; SW480, colorectal, Ras K12, B-Raf wt (cellular Ras): 57% | inhibition of growth (percentage of cells that do not incorporate BrdU) after micro-injection of Y13-259; SW620, colorectal, Ras onc, B-Raf wt (cellular Ras): 92% | inhibition of growth (percentage of cells that do not incorporate BrdU) after micro-injection of Y13-259; WM-266-4/WM-115, melanoma, Ras 'b', B-Raf V599D (cellular Ras): 10% | inhibition of growth (percentage of cells that do not incorporate BrdU) after micro-injection of Y13-259; colo205, colorectal, Ras wt, B-Raf V599E (cellular Ras): 3% | inhibition of growth (percentage of cells that do not incorporate BrdU) after micro-injection of Y13-259; colo741, colorectal, Ras not given, B-Raf V599E (cellular Ras): 0%
